Reference: ChEMBL document CHEMBL5365396, “Design, synthesis and anti-tumor evaluation of plinabulin derivatives as potential agents targeting β-tubulin” (Bioorg Med Chem Lett, 2023)
Calls of active or inactive are those of the source. No cut-off for these calls is given here.

How the values were obtained:
NCI-H460 = test: Antiproliferative activity against human NCI-H460 cells assessed as cell growth inhibition by MTT assay; assay type: functional, cell-based
HCT-116 [1] = test: Antiproliferative activity against human HCT-116 cells assessed as cell growth inhibition by MTT assay; assay type: functional, cell-based
BXPC-3 = test: Antiproliferative activity against human BXPC-3 cells assessed as cell growth inhibition by MTT assay; assay type: functional, cell-based
[2] = molecular target: T1, Tubulin beta (Homo sapiens) (UniProt P68371+Q9H4B7+Q13509+P04350+Q3ZCM7+P07437+Q13885+Q9BVA1+Q9BUF5+A6NNZ2); test: Induction of beta-tubulin depolymerization in human HCT-116 cells assessed as microtubule disruption at 10 nM incubated for 24 hrs by DAPI staining based immunofluorescence assay relative to control; assay type: cell-based
[3] = molecular target: T1, Tubulin beta (Homo sapiens); test: Induction of beta-tubulin depolymerization in human HCT-116 cells assessed as disruption of microtubule network by measuring abnormality in formation of spindle bodies at 10 nM measured after 24 hrs by DAPI staining based immunofluorescence assay; assay type: cell-based
HCT-116 [4] = test: Induction of apoptosis in human HCT-116 cells assessed as late apoptotic cells at 5 nM by Annexin-V-FITC and PI staining based flow cytometry (reference value: 1.75 %); assay type: functional
HCT-116 [5] = test: Induction of cell cycle arrest in human HCT-116 cells assessed as increase in accumulation at G2/M phase by propidium iodide staining based flow cytometry; assay type: functional; settings: dose 5-20 nM
HCT-116 [6] = test: Induction of cell cycle arrest in human HCT-116 cells assessed as accumulation of cells at G1 phase at 5 nM by propidium iodide staining based flow cytometry analysis (reference value: 37.85 %); assay type: functional
HCT-116 [7] = test: Induction of cell cycle arrest in human HCT-116 cells assessed as accumulation of cells at G1 phase at 10 nM by propidium iodide staining based flow cytometry analysis (reference value: 37.85 %); assay type: functional
HCT-116 [8] = test: Induction of cell cycle arrest in human HCT-116 cells assessed as increase in accumulation at G2/M phase at 5 nM by propidium iodide staining based flow cytometry relative to control; assay type: functional
HCT-116 [9] = test: Induction of cell cycle arrest in human HCT-116 cells assessed as accumulation of cells at S phase at 20 nM by propidium iodide staining based flow cytometry analysis (reference value: 39.4 %); assay type: functional
HCT-116 [10] = test: Induction of cell cycle arrest in human HCT-116 cells assessed as accumulation of cells at G1 phase at 20 nM by propidium iodide staining based flow cytometry analysis (reference value: 37.85 %); assay type: functional
[11] = Induction of apoptosis in human HCT-116 cells assessed as early apoptotic cells at 5 nM by Annexin-V-FITC and PI staining based flow cytometry (reference value: 3.20 %); assay type: functional
HCT-116 [12] = test: Induction of apoptosis in human HCT-116 cells assessed as increase in early apoptosis cells at 20 nM by Annexin-V-FITC and PI staining based flow cytometry analysis relative to control; assay type: functional
HCT-116 [13] = test: Induction of cell cycle arrest in human HCT-116 cells assessed as increase in accumulation at G2/M phase at 10 nM by propidium iodide staining based flow cytometry relative to control; assay type: functional
HCT-116 [14] = test: Induction of cell cycle arrest in human HCT-116 cells assessed as accumulation of cells at S phase at 5 nM by propidium iodide staining based flow cytometry analysis (reference value: 39.4 %); assay type: functional
HCT-116 [15] = test: Induction of cell cycle arrest in human HCT-116 cells assessed as accumulation of cells at S phase at 10 nM by propidium iodide staining based flow cytometry analysis (reference value: 39.4 %); assay type: functional
HCT-116 [16] = test: Induction of apoptosis in human HCT-116 cells assessed as increase in late apoptosis cells at 20 nM by Annexin-V-FITC and PI staining based flow cytometry analysis relative to control; assay type: functional
HCT-116 [17] = test: Induction of cell cycle arrest in human HCT-116 cells assessed as increase in accumulation at G2/M phase at 20 nM by propidium iodide staining based flow cytometry relative to control; assay type: functional
HCT-116 [18] = test: Induction of apoptosis in human HCT-116 cells assessed as early apoptotic cells at 10 nM by Annexin-V-FITC and PI staining based flow cytometry (reference value: 3.20 %); assay type: functional
HCT-116 [19] = test: Induction of apoptosis in human HCT-116 cells assessed as late apoptotic cells at 10 nM by Annexin-V-FITC and PI based flow cytometry (reference value: 1.75 %); assay type: functional

## CC(C)(C)c1[nH]cnc1/C=c1\[nH]c(=O)/c(=C/c2c[nH]c3ccccc23)[nH]c1=O
NCI-H460
  IC50: 82.8 nM
HCT-116 [1]
  IC50: 6.5 nM
BXPC-3
  IC50: 13.7 nM

## CC(C)(C)c1[nH]cnc1/C=c1\[nH]c(=O)/c(=C/c2cccc(NC(=O)c3ccccn3)c2)[nH]c1=O
NCI-H460
  IC50: 3850 nM
HCT-116 [1]
  IC50: 226 nM
BXPC-3
  IC50: 520 nM

## CCC(=O)Nc1cccc(/C=c2\[nH]c(=O)/c(=C/c3nc[nH]c3C(C)(C)C)[nH]c2=O)c1
NCI-H460
  IC50: 2290 nM
HCT-116 [1]
  IC50: 243 nM
BXPC-3
  IC50: 598 nM

## CC(C)(C)c1[nH]cnc1/C=c1\[nH]c(=O)/c(=C/c2cccc(NC(=O)c3cccc(C(=O)c4ccccc4)c3)c2)[nH]c1=O
NCI-H460
  IC50: > 5000 nM
HCT-116 [1]
  IC50: > 5000 nM
BXPC-3
  IC50: 4460 nM

## CC(C)(C)c1[nH]cnc1/C=c1\[nH]c(=O)/c(=C/c2cccc(NC(=O)C3CC3)c2)[nH]c1=O
NCI-H460
  IC50: 2340 nM
HCT-116 [1]
  IC50: 730 nM
BXPC-3
  IC50: 1570 nM

## CC(C)(C)c1[nH]cnc1/C=c1\[nH]c(=O)/c(=C/c2cccc(NC(=O)Cc3ccccc3)c2)[nH]c1=O
NCI-H460
  IC50: 1100 nM
HCT-116 [1]
  IC50: 474 nM
BXPC-3
  IC50: 1700 nM

## Cc1ccc(C(=O)Nc2cccc(/C=c3\[nH]c(=O)/c(=C/c4nc[nH]c4C(C)(C)C)[nH]c3=O)c2)c(C)c1
NCI-H460
  IC50: 1280 nM
HCT-116 [1]
  IC50: 504 nM
BXPC-3
  IC50: 2590 nM

## CC(C)(C)c1[nH]cnc1/C=c1\[nH]c(=O)/c(=C/c2ccc3[nH]ccc3c2)[nH]c1=O
NCI-H460
  IC50: 223 nM
HCT-116 [1]
  IC50: 5.9 nM
BXPC-3
  IC50: 6.7 nM

## CC(C)[C@H](CN)C(=O)Nc1cccc(/C=c2\[nH]c(=O)/c(=C/c3nc[nH]c3C(C)(C)C)[nH]c2=O)c1 (stereo in doubt)
NCI-H460
  IC50: 1430 nM
HCT-116 [1]
  IC50: 31.3 nM
BXPC-3
  IC50: 31.4 nM

## CC(C)(C)c1[nH]cnc1/C=c1\[nH]c(=O)/c(=C/c2cccc(NC(=O)C3CCCN3)c2)[nH]c1=O (configuration not stated)
NCI-H460
  IC50: 302 nM
HCT-116 [1]
  IC50: 72.1 nM
BXPC-3
  IC50: 22.9 nM

## CC(C)(C)c1[nH]cnc1/C=c1\[nH]c(=O)/c(=C/c2cccc(NC(=O)c3cc4ccccc4[nH]3)c2)[nH]c1=O
NCI-H460
  IC50: > 5000 nM
HCT-116 [1]
  IC50: 2660 nM
BXPC-3
  IC50: 1760 nM

## Cc1ccc(F)cc1C(=O)Nc1cccc(/C=c2\[nH]c(=O)/c(=C/c3nc[nH]c3C(C)(C)C)[nH]c2=O)c1
NCI-H460
  IC50: 1310 nM
HCT-116 [1]
  IC50: 362 nM
BXPC-3
  IC50: 1590 nM

## CC(C)(C)c1[nH]cnc1/C=c1\[nH]c(=O)/c(=C/c2cccc(NC(=O)C3CCC3)c2)[nH]c1=O
NCI-H460
  IC50: 1490 nM
HCT-116 [1]
  IC50: 895 nM
BXPC-3
  IC50: 585 nM

## CC(C)(C)c1[nH]cnc1/C=c1\[nH]c(=O)/c(=C/c2cccc(NC(=O)CN)c2)[nH]c1=O
NCI-H460
  IC50: 843 nM
HCT-116 [1]
  IC50: 214 nM
BXPC-3
  IC50: 272 nM

## CC(C)(C)c1[nH]cnc1/C=c1\[nH]c(=O)/c(=C/c2cccc(NC(=O)c3cccnc3)c2)[nH]c1=O
NCI-H460
  IC50: 4850 nM
HCT-116 [1]
  IC50: 1060 nM
BXPC-3
  IC50: 1600 nM

## CC(C)(C)c1[nH]cnc1/C=c1\[nH]c(=O)/c(=C/c2cccc(NC(=O)C3CCCC3)c2)[nH]c1=O
NCI-H460
  IC50: 743 nM
HCT-116 [1]
  IC50: 643 nM
BXPC-3
  IC50: 3130 nM

## CC(C)(C)c1[nH]cnc1/C=c1\[nH]c(=O)/c(=C/c2cc3ccccc3[nH]2)[nH]c1=O
NCI-H460
  IC50: 1390 nM
HCT-116 [1]
  IC50: 3310 nM
BXPC-3
  IC50: 2770 nM

## CC(C)(C)c1[nH]cnc1/C=c1\[nH]c(=O)/c(=C/c2cccc(NC(=O)c3ccc(F)cc3)c2)[nH]c1=O
NCI-H460
  IC50: 271 nM
HCT-116 [1]
  IC50: 123 nM
BXPC-3
  IC50: 595 nM

## CC(C)C(=O)Nc1cccc(/C=c2\[nH]c(=O)/c(=C/c3nc[nH]c3C(C)(C)C)[nH]c2=O)c1
NCI-H460
  IC50: 977 nM
HCT-116 [1]
  IC50: 606 nM
BXPC-3
  IC50: 1460 nM

## CC(C)(C)c1[nH]cnc1/C=c1\[nH]c(=O)/c(=C/c2ccccc2)[nH]c1=O [PLINABULIN]
NCI-H460
  IC50: 30.9 nM
[2]
  Activity: 67%
[3]
  Activity: Active
HCT-116 [1]
  IC50: 8.8 nM
BXPC-3
  IC50: 18.4 nM

## CC(C)(C)c1[nH]cnc1/C=c1\[nH]c(=O)/c(=C/c2cccc(N)c2)[nH]c1=O
NCI-H460
  IC50: 165 nM
HCT-116 [1]
  IC50: 15.3 nM
BXPC-3
  IC50: 80.1 nM

## CC(C)(C)C(=O)Nc1cccc(/C=c2\[nH]c(=O)/c(=C/c3nc[nH]c3C(C)(C)C)[nH]c2=O)c1
NCI-H460
  IC50: 3180 nM
HCT-116 [1]
  IC50: 2880 nM
BXPC-3
  IC50: 1890 nM

## COc1ccc(C(=O)Nc2cccc(/C=c3\[nH]c(=O)/c(=C/c4nc[nH]c4C(C)(C)C)[nH]c3=O)c2)cc1
NCI-H460
  IC50: 1170 nM
HCT-116 [1]
  IC50: 1040 nM
BXPC-3
  IC50: 1510 nM

## CC(=O)Nc1cccc(/C=c2\[nH]c(=O)/c(=C/c3nc[nH]c3C(C)(C)C)[nH]c2=O)c1
NCI-H460
  IC50: 667 nM
HCT-116 [1]
  IC50: 238 nM
BXPC-3
  IC50: 540 nM

## CC(C)(C)c1[nH]cnc1/C=c1\[nH]c(=O)/c(=C/c2cccc(NC(=O)c3ccccc3)c2)[nH]c1=O
NCI-H460
  IC50: 936 nM
HCT-116 [1]
  IC50: 47.6 nM
BXPC-3
  IC50: 398 nM

## CC(C)(C)c1[nH]cnc1/C=c1\[nH]c(=O)/c(=C/c2cccc3[nH]ccc23)[nH]c1=O
HCT-116 [4]
  Activity: 2%
HCT-116 [5]
  Activity: Dose-Dependent Effect
NCI-H460
  IC50: 20.9 nM
HCT-116 [6]
  Activity: 33.6%
HCT-116 [7]
  Activity: 32.3%
[2]
  Activity: 77%
HCT-116 [8]
  fold change (FC): 1.1
HCT-116 [9]
  Activity: 41.7%
[3]
  Activity: Active
HCT-116 [1]
  IC50: 7.3 nM
HCT-116 [10]
  Activity: 5.69%
BXPC-3
  IC50: 16.7 nM
[11]
  Activity: 4.9%
HCT-116 [12]
  fold change (FC): 6.4
HCT-116 [13]
  fold change (FC): 1.4
HCT-116 [14]
  Activity: 41.45%
HCT-116 [15]
  Activity: 37.05%
HCT-116 [16]
  fold change (FC): 3.9
HCT-116 [17]
  fold change (FC): 2.7
HCT-116 [18]
  Activity: 6.15%
HCT-116 [19]
  Activity: 2.55%

## CC(C)(C)c1[nH]cnc1/C=c1\[nH]c(=O)/c(=C/c2cccc(NC(=O)C3CCCCC3)c2)[nH]c1=O
NCI-H460
  IC50: 618 nM
HCT-116 [1]
  IC50: 1320 nM
BXPC-3
  IC50: 1020 nM

## CC(C)(C)c1[nH]cnc1/C=c1\[nH]c(=O)/c(=C/c2ccc3cc[nH]c3c2)[nH]c1=O
NCI-H460
  IC50: 1840 nM
HCT-116 [1]
  IC50: 2900 nM
BXPC-3
  IC50: 3770 nM

## CC(C)(C)c1[nH]cnc1/C=c1\[nH]c(=O)/c(=C/c2cccc3cc[nH]c23)[nH]c1=O
NCI-H460
  IC50: 286 nM
HCT-116 [1]
  IC50: 390 nM
BXPC-3
  IC50: 9.5 nM
